Key:
[1] = tested on: acute thermal pain in the rat; test: Rat hot plate assay (response latency, % MPE)
Procedure: Morphine sulphate (1-10 mg/kg) was dissolved in 0.9% normal saline solution (NSS)(vehicle) and administered SC 1 hour prior to testing against vehicle. Data were analyzed by a two-way ANOVA using a Bonferroni Multiple Comparison Test,***P<0.001.
Morphine sulphate (1-10 mg/kg) was dissolved in 0.9% normal saline solution (NSS)(vehicle) and administered SC 1 hour prior to testing against vehicle. % MPE=Percent Maximum Possible Effect. % MPE=(test latency-baseline)/(cutoff-baseline). Data was analyzed using a Bonferroni Multiple Comparison Test,***P<0.001.
Morphine sulphate (10 mg/kg), the positive control, was dissolved in 0.9% NSS (vehicle). The formulations were administered SC 1 hour prior to testing against vehicle. Data were analyzed by a two-way ANOVA using a Bonferroni multiple comparisons test, where *P<0.05 and ***P <0.001. Data are represented as the means+S.E.M.
Morphine sulphate (10 mg/kg) was dissolved in 0.9% NSS (vehicle). The formulations were administered SC 1 hour prior to testing against vehicle. % MPE=Percent Maximum Possible Effect. % MPE=(test latency-baseline)/(cutoff (30 s)-baseline). Data were analyzed by a two-way ANOVA using Bonferroni Multiple Comparisons test for post-hoc analysis, where *P<0.05 and ***P<0.001. Data are represented as the means+SEM.
The positive control, morphine sulfate in 0.9% NS, was administered SC 1 hour prior to testing. Rats were assessed one day prior (BL) and then 1, 3 and 5 hours post-dosing. Hot Plate was set to 52° C. and cutoff was 30 seconds. Data were analyzed by a two-way ANOVA using a Bonferroni Multiple Comparisons Test, where *P<0.05, ***P<0.001 and ****P<0.0001 versus vehicle. Data are represented as the means+S.E.M from two combined studies.
Oxycodone hydrochloride (0.3-5 mg/kg) was dissolved in 0.9% normal saline solution (NSS)(vehicle) and administered SC 1 hour prior to testing against vehicle. Hot plate was set to 52° C. and cutoff was 30 seconds. Data were analyzed by a two-way ANOVA using a Bonferroni multiple comparisons test, where ****P<0.0001. Data are represented as the means+S.E.M.
Compound was administered SC 1 hour prior to testing. Oxycodone hydrochloride (0.3-5 mg/kg) was dissolved in 0.9% normal saline solution (NSS)(vehicle) and administered SC 1 hour prior to testing against vehicle. Hot plate was set to 52° C. and cutoff was 30 seconds. % MPE=. Percent Maximum Possible Effect. % MPE=(test latency-baseline)/(cutoff (30 s)-baseline). Data were analyzed by a two-way ANOVA using Bonferroni Multiple Comparisons test for post-hoc analysis, ****P<0.000. Data are represented as the means+SEM.
Oxycodone HCl was administered SC 1 hour prior to testing. Thermal latency was assessed the day prior (BL) and then 1, 3 and 5 hours post-oxycodone dosing. The hotplate was set to 52° C. and the cutoff was 30 seconds. Oxycodone was dissolved in 0.9% NS (vehicle). […] Data were analyzed by a two-way ANOVA using the Bonferroni Multiple Comparisons test for post-hoc analysis where, ***P<0.001. Data are represented as the means+SEM.
Oxycodone HCl was administered PO 1 hour prior to testing, while morphine sulfate, the positive control, was administered SC 1 hour prior to testing. Behavior was assessed the day prior (BL) and then 1, 3, 5 and 24 hours post-compound administration. The hot plate was set to 52° C. and the cutoff was 30 seconds. Oxycodone was dissolved in water (vehicle), while morphine sulfate was dissolved in 0.9% NS. Data were analyzed by a two-way ANOVA using a Bonferroni Multiple Comparisons Test, where ****P<0.0001.
Rats were assessed for thermal latency the day prior to dosing, then 1.5, 3 and 5 hours post-morphine administration. Data were analyzed by a two-way ANOVA using the Bonferroni Multiple Comparisons Test, where ****P<0.0001 compared to vehicle+vehicle.

[2] = tested on: acute thermal pain in the rat; test: Rat tail flick assay (response latency, % MPE)
Procedure: Morphine sulphate (1-10 mg/kg) was dissolved in 0.9% normal saline solution (NSS)(vehicle) and administered SC 1 hour prior to testing against vehicle. Data were analyzed by a two-way ANOVA using a Bonferroni post-hoc test, *P<0.05, ***P<0.001.
Morphine sulphate (1-10 mg/kg) was dissolved in 0.9% normal saline solution (NSS)(vehicle) and administered SC 1 hour prior to testing against vehicle. % MPE=Percent of Maximum Possible Effect. % MPE=(test latency-baseline)/(cutoff(20 s)-baseline)*100. Data were analyzed by a two-way ANOVA using a Bonferroni post-hoc test, *P<0.05, **P<0.01, ***P<0.001.
Morphine sulphate (10 mg/kg) was dissolved in 0.9% NSS (vehicle). The formulations were administered SC 1 hour prior to testing against vehicle. Data were analyzed by a two-way ANOVA using a Bonferroni multiple comparisons test, *P<0.05, ***P<0.001.
Morphine sulphate (10 mg/kg) was dissolved in 0.9% NSS (vehicle). The formulations were administered SC 1 hour prior to testing against vehicle. % MPE=Percent Maximum Possible Effect. % MPE=(test latency-baseline)/(cutoff(20 s)-baseline)*100. Data were analyzed by a two-way ANOVA using a Bonferroni multiple comparisons test, ***P<0.001.
The positive control, morphine sulfate in 0.9% NS was administered SC 1 hour prior to testing. Rats were assessed the day prior (BL) and then 1, 3 and 5 hours post-dosing. Tail Flick was set to 40 intensity and cutoff 20 seconds. Data were analyzed by a two-way ANOVA using a Bonferroni Multiple Comparisons Test, where *P<0.05,***P<0.001 and ****P<0.0001. Data are represented as the means+S.E.M of two combined studies.
Oxycodone hydrochloride (0.3-5 mg/kg) was dissolved in 0.9% normal saline solution (NSS)(vehicle) and administered SC 1 hour prior to testing against vehicle. Data were analyzed by a two-way ANOVA using a Bonferroni multiple comparisons test, ****P<0.001.
Oxycodone hydrochloride (0.3-5 mg/kg) was dissolved in 0.9% normal saline solution (NSS)(vehicle) and administered SC 1 hour prior to testing against vehicle. % MPE=Percent Maximum Possible Effect. % MPE=(test latency-baseline)/(cutoff(20 s)-baseline)*100. Data were analyzed by a two-way ANOVA using a Bonferroni multiple comparisons test, ****P<0.001.
Oxycodone HCl and vehicle were administered SC 1 hour prior to testing. Rats were assessed one day prior (BL) and then 1, 3 and 5 hours post-oxycodone administration. The tail flick was set to an intensity of 40 and the cutoff was 20 seconds. Oxycodone was dissolved in 0.9% (vehicle). […] Data were analyzed by a two-way ANOVA followed by the Bonferroni Multiple Comparisons Test where, *P<0.05 and ****P<0.001.
Oxycodone HCl was administered PO 1 hour prior to testing, while morphine sulfate, the positive control, was administered SC 1 Hour prior to testing. Behavior was assessed the day prior (BL) to dosing, and then 1, 3, 5 and 24 hours post-compound administration. The tail flick was set to an intensity of 40 and 20 seconds was used as the cutoff. Oxycodone was dissolved in water (vehicle), while morphine was dissolved in 0.9% NS. Data were analyzed by a two-way ANOVA using a Bonferroni Multiple Comparisons Test, where *P<0.05, **P<0.01, ***P<0.001 and ****P<0.0001.
Rats were assessed for tail flick latency the day prior to dosing, then 1.5, 3 and 5 hours post-morphine administration. Data were analyzed by a two-way ANOVA using the Bonferroni Multiple Comparisons Test, where ****P<0.0001 compared to vehicle+vehicle. Data are represented as the means+S.E.M.
Rats were assessed for thermal latency 1.5, 3 and 5 hours post-morphine administration. % MPE=Percent Maximum Possible Effect. % MPE=(test latency-baseline)/(cutoff(20 s)-baseline)*100. Data were analyzed by a two-way ANOVA using a Bonferroni multiple comparisons test for post-hoc analysis where *P<0.05 and ****P<0.001. Data are represented as the means+SEM.
Rats were tested 1 hour after oxycodone injection.

rat GI transit = test: Charcoal meal GI transit in the rat, single agent; conditions: for GI transit: % of the small intestine travelled by a charcoal meal: vs vehicle
Procedure: Rats were dosed with Oxycodone HCl/Oxy or vehicle (water) PO once daily for 5 days (chronic). Additional groups were dosed only once on day 5 (acute). […] One hour after charcoal, all rats were euthanized by CO2 and the GI tract was removed from the stomach to the cecum. The length of the small intestine and the distance (cm) to the leading edge of charcoal was recorded. Data were analyzed using a one-way ANOVA with Bonferonni's Multiple Comparison Test where * P<0.05, ****P<0.0001 vs. vehicle (chronic), ###vs. oxycodone (acute). Data are represented as the means+S.E.M.

rat gastric emptying = test: Stomach weight after charcoal meal (gastric emptying); assay type: in vivo, male Sprague-Dawley rats; conditions: morphine sulfate 1-10 mg/kg SC 0.5 h before charcoal meal, vs vehicle; FIG. 1B
Procedure: Morphine sulfate (1-10 mg/kg) or 0.9% normal saline (vehicle) was administered SC to the test subjects. 0.5 hour later, a charcoal meal (1 ml/100 grams) was administered PO to the test subjects. One hour after the charcoal meal, the test subjects were euthanized by CO2 and the stomachs were removed and weighed. Data were analyzed using a one-way ANOVA followed by the Dunnett's Multiple Comparisons test where *P<0.05, **P<0.01 and ***P<0.001. […] This effect was dose dependent with a greater magnitude of effect observed with increasing dose.

Row | SMILES | rats found dead ([1]; oxycodone HCl 10 mg/kg SC, at the 3 hr time point) | hot plate MED (mitigates acute pain) ([1]; oxycodone HCl PO, FIG. 8D) [mg/kg] | hot plate MED (mitigates acute pain) ([1]; oxycodone HCl SC, FIG. 8C) [mg/kg] | hot plate latency to nocifensive response ([1]; oxycodone hydrochloride 0.3-5 mg/kg SC 1 h prior to testing, FIG. 8A) | hot plate % of the maximal possible effect (% MPE) ([1]; oxycodone hydrochloride 0.3-5 mg/kg SC 1 h prior to testing, FIG. 8B) | rats found dead ([2]; oxycodone HCl 10 mg/kg SC dosing group, at the 3 hr time point) | tail flick MED (mitigates acute pain) ([2]; oxycodone HCl PO, FIG. 9D) [mg/kg] | tail flick MED (mitigates acute pain) ([2]; oxycodone HCl SC, FIG. 9C) [mg/kg] | tail flick latency to nocifensive response ([2]; oxycodone hydrochloride 0.3-5 mg/kg SC 1 h prior to testing, FIG. 9A) | tail flick % of the maximal possible effect (% MPE) ([2]; oxycodone hydrochloride 0.3-5 mg/kg SC 1 h prior to testing, FIG. 9B) | tolerance to inhibition of GI transit (rat GI transit; oxycodone HCl PO once daily for 5 days (chronic) vs single dose on day 5 (acute), FIG. 7D) | GI transit: % of the small intestine travelled by a charcoal meal (rat GI transit; oxycodone hydrochloride 0.3-5 mg/kg SC 1 h before charcoal meal, FIG. 7A) | stomach weight (gastric emptying) (rat gastric emptying) | hot plate latency to nocifensive response ([1]; morphine sulphate 1-10 mg/kg SC 1 h prior to testing, FIG. 2A) | hot plate % of the maximal possible effect (% MPE) ([1]; morphine sulphate 1-10 mg/kg SC 1 h prior to testing, FIG. 2B) | tail flick latency to nocifensive response ([2]; morphine sulphate 1-10 mg/kg SC 1 h prior to testing, FIG. 3A) | tail flick % of the maximal possible effect (% MPE) ([2]; morphine sulphate 1-10 mg/kg SC 1 h prior to testing, FIG. 3B) | GI transit: % of the small intestine travelled by a charcoal meal (rat GI transit; morphine sulfate 1-10 mg/kg SC 0.5 h before charcoal meal, FIG. 1A)
1 | COc1ccc2c3c1O[C@H]1C(=O)CC[C@@]4(O)[C@@H](C2)N(C)CC[C@]314.Cl [oxycodone, oxycodone hydrochloride] | 4 out of 10 | 10 | 3 | provides analgesia | provides analgesia | 4 out of 10 | 10 | 3 | provides analgesia | provides analgesia | produces some tolerances to its acute effect on the inhibition of GI transit | decreases gastrointestinal transit |  |  |  |  |  | 
2 | CN1CC[C@]23c4c5ccc(O)c4O[C@H]2[C@@H](O)C=C[C@H]3[C@H]1C5.O=S(=O)(O)O [morphine, morphine sulphate] |  |  |  |  |  |  |  |  |  |  |  |  | increased stomach weight due to delayed gastric emptying | provides analgesia | provides analgesia | provides analgesia | provides analgesia | decreases gastrointestinal transit

Reference: patent US12582647B2, “Systems and methods for treating an opioid-induced adverse pharmacodynamic response” (Purdue Pharma L.P., priority 2012, dated 2026)
